In US7345065B2, “Methods and compositions for alleviating pain” (Allergan, Inc., priority 2002, dated 2008):

Experiments:
rat α-1D = target: T1, rat α-1D (Rattus norvegicus, UniProt P23944); assay: RSAT assay, α-1D receptor; assay type: cell-based; details: NA = not active (EC50 ≧ 10,000)
T1 construct: expressed in transfected cells; host or cells: NIH-3T3
T1 sequence (P23944 1-561): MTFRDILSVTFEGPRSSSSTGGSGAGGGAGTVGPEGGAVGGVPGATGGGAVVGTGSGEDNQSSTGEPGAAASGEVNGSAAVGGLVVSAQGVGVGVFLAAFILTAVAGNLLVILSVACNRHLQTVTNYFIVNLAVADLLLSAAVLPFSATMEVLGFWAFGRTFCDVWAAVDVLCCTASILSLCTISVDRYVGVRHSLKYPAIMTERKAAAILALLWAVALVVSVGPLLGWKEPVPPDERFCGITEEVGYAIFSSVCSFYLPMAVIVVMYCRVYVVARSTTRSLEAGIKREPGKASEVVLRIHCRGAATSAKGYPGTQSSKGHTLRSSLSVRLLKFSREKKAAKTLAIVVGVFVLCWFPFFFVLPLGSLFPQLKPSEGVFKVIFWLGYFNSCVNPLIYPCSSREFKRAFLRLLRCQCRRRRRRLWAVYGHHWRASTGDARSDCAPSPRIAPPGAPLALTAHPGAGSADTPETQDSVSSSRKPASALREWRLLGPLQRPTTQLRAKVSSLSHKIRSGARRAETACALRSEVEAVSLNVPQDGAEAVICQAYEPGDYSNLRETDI
Excerpt: Agonist and antagonist activity, including selectivity and specificity, can be characterized using any of a variety of routine assays, including, without limitation, Receptor Selection and Amplification Technology (RSAT) assays (Messier et al., Pharmacol. Toxicol. 76:308-11 (1995); Conklin et al., Nature 363:274-6 (1993)); cyclic AMP assays (Shimizu et al., J. Neurochem. 16:1609-1619 (1969)); and cytosensor microphysiometry assays (Neve et al., J. Biol. Chem. 267:25748-25753 (1992)). Such assays generally are performed using cells that naturally express only a single α-adrenergic receptor subtype, or using transfected cells expressing a single recombinant α-adrenergic receptor subtype. The adrenergic receptor can be a human receptor or homolog thereof having a similar pharmacology. As disclosed herein, RSAT assays were performed using cells transiently transfected with human α-2A (c10 gene); rat α-2B (RNG gene); human α-2C (c4 gene); bovine α-1A; hamster α-1B; and rat α-1D.
The RSAT assay measures receptor-mediated loss of contact inhibition resulting in selective proliferation of receptor-containing cells in a mixed population of confluent cells. The increase in cell number is assessed with an appropriate detectable marker gene such as β-galactosidase, if desired, in a high throughput or ultra high throughput assay format. Receptors that activate the G protein, Gq, elicit the proliferative response. α-adrenergic receptors, which normally couple to Gi, activate the RSAT response when coexpressed with a hybrid Gq protein containing a Gi receptor recognition domain, designated Gq/i5.
As an example, an RSAT assay can be performed essentially as follows. […] After washing with phosphate-buffered saline, β-galactosidase activity is determined by adding 200 μl of chromogenic substrate (3.5 mM O-nitrophenyl-β-D-galactopyranoside/0.5% NP-40 in phosphate buffered saline), incubating overnight at 30°, and measuring optical density at 420 nm. […] The EC50 and maximal effect (efficacy) of each drug at each receptor is determined.

Chung model rats = assay: Chung rat nerve ligation model, tactile allodynia reversal (Von Frey); assay type: in vivo; details: for allodynia reversal, single oral dose: Compound 3 30 μg/kg, Compound 11 0.1 mg/kg, Compound 4 0.3 mg/kg; for Peak allodynia reversal (dose): intraperitoneal injection, dose (3-300 μg/kg); for allodynia reversal: osmotic minipump 0.1 mg/kg/hour for five days; for persistence of analgesic effects after treatment: subcutaneous osmotic minipump 0.1 mg/kg/hour, seven days; for maintenance of the analgesic effect after minipump removal: osmotic minipump for five days, four week test period
Procedure: The Chung rat nerve ligation model is a well accepted model of peripheral neuropathic pain. In the Chung model, partial ligation of left spinal nerves L-5 and L-6 produces a long-lasting hypersensitivity to light touch on the affected left foot. The hypersensitivity is similar to pain experienced by humans with the neuropathic condition of causalgia (Kim and Chung, Pain 50:355-363 (1992)).
Chung rat surgeries of about 20 minutes duration were performed essentially as follows. Male Sprague-Dawley rats weighing 100 to 120 grams were anesthetized with isofluorane. After shaving and preparing the surgical site with betadine, an incision was made from thoracic vertebra XIII down toward the sacrum, and muscle separated from spinal vertebra (left side) at the L4-S2 levels. The L6 vertebra were located, and the transverse process carefully removed with a small rongeur to visually identify the L4-L6 spinal nerves. L5 and L6 spinal nerves were isolated and tightly ligated with 6-0 silk thread; the wound was sutured after complete hemostasis was confirmed. A small amount of antibiotic ointment was applied to the incised area before transferring the animals to a plastic recovery cage under a regulated heat-temperature lamp. Animals were not treated with any topical or local anesthetics post-operatively.
Assessment of pain in Chung model rats was performed by applying a light tactile stimulus (Von Frey hair) to the affected surgical paw as follows. A 50% pain threshold was established by applying the Von Frey hair in an up-and-down manner to the plantar surface of the surgical paw with just enough force to bend them. A positive response was recorded if the paw was withdrawn sharply. The 50% paw withdrawal threshold was determined using the method of Dixon et al., Ann. Rev. Pharmacol. Toxicol. 20:441-462 (1980). The post-drug threshold was compared to the pre-drug threshold, and the precent reversal of tactile sensitivity calculated based on a normal threshold of 15.1 grams. The results were expressed as % allodynia reversal, reflecting the percentage reversal of pain threshold relative to a normal rat (100%).
Chung surgeries were performed, and pain assessed as described above. Drugs administered via osmotic minipump were delivered as follows. ALZET (Cupertino, Calif.) minipumps (Model #1007D) were implanted subcutaneously on the rats' back between the shoulder blades. Pumps were filled with test solution prior to surgery, which was performed with aseptic procedures and sterilized surgical instruments. After anesthetization with isoflorane and midline incision between the shoulder blades through the muscle, a subcutaneous pocket was exposed. The minipump was inserted into the exposed pocket, before stapling the wounds closed and allowing animals to recover under a warming light.
ALZET osmotic minipumps (model 1007D) hold a total volume of 100 μl and delivered drug at the set rat of 0.5 μl per hour the indicated time period. Drugs were administered at the indicated rate, typically 100 μg/hr/kg, dissolved in 50% DMSO, with the concentration of drug in the pump varied depending on animal weight. […]

Row | EC50 (rat α-1D) [nM] | SMILES | allodynia reversal, single oral dose (Chung model rats) | Peak allodynia reversal (dose) (Chung model rats) | allodynia reversal (Chung model rats) | analgesia, agonist given alone (Chung model rats; peripheral (intraperitoneal) administration, Chung rats, Compound 2 100 μg/kg, clonidine 100 μg/kg, Compound 3 1 to 1000 μg/kg) | time by which the analgesic effect was gone (Chung model rats; single oral dose) | time to analgesic effect (Chung model rats; single oral dose) | persistence of analgesic effects after treatment (Chung model rats) | maintenance of the analgesic effect after minipump removal (Chung model rats) | oral dose sufficient for an analgesic effect (Chung model rats; single oral dose) [mg/kg] | allodynia reversal and duration at 1 mg/kg oral (Chung model rats; single oral dose 1 mg/kg, compared with 0.3 mg/kg)
1 | > 2000 | O=C1c2ccccc2CCC1Cc1c[nH]c(=S)[nH]1 (racemic) [Compound 3] | 70-100% | 81% +/− 10% | about 80% | significant analgesia without producing sedation | ≤ 2 h | less than 20 minutes | continued for over a month after treatment was concluded | – | – | –
2 | > 2000 | O=c1[nH]cc(CC2CCc3cc(F)ccc32)[nH]1 (stereo not shown) [Compound 4] | 60-80% | 80% +/− 6.5% | about 80% | – | essentially no pain relief was observed after four hours | – | continued for over a month after treatment was concluded | maintained at essentially the same level over the entire four week test period | 0.03 | the allodynia was reversed to a greater extent, and the pain relief was of longer duration
3 | > 2000 | S=c1[nH]cc(CC2CC=CC2)[nH]1 [Compound 11] | 60-90% | – | about 80% | – | ≤ 2 h | – | – | maintained at essentially the same level over the entire four week test period | – | –
